Values of other authors, collected in US10111869B2, “Reduction of opioid blood fluctuations” (priority 2009, dated 2018).

Conditions: in vivo

For `COc1ccc2c3c1O[C@H]1C(=O)CC[C@@]4(O)[C@@H](C2)N(C)CC[C@]314` [Oxycodone], the “analgesic potency relative to morphine” value is listed as “about twice”.
